Measurements from patent US9820951B2, “Pulmonary disease treatment and diagnosis based on Arhgef1” (NATIONAL JEWISH HEALTH, A NON-PROFIT ORGANIZATION, priority 2011, dated 2017).

Assays:
[1] = system: MMP9; assay: MMP9 production by human alveolar macrophages cultured on fibronectin (gelatin zymography); type: cell-based; settings: PTA2 1.25, 6.25 and 25 μM, dose-dependent
From the text: FIG. 14. Human alveolar macrophages produce TXB2 when cultured on fibronectin and thromboxane receptor signaling is required for MMP9 production. A, TXB2 production measured in conditioned media from human macrophages cultured on fibronectin (closed bars) or plastic (open bars) at the indicated cellular concentrations. B, TXB2 measured in conditioned media from macrophages cultured at 0.125×10^6 cells/ml on either plastic (ctl) or FN from four individuals. The data represent the means±S.E. C, gelatin zymogram of conditioned media from cells cultured as indicated and in the presence of increasing doses of the thromboxane receptor antagonist PTA2 (at 1.25, 6.25, and 25 μM, respectively). Below the zymogram is quantitation of MMP9 activity by densitometric analysis.
Tissue-culture 96-well plates (Costar high binding catalogue number 3590) were coated with 10 μg/ml of murine fibronectin (Molecular Innovations, Nori, Minn.; catalogue number MFBN) or human fibronectin (Molecular Innovations; catalogue number HFBN) in DPBS without Ca^2+ or Mg^2+ (Mediatech, Inc., Manassas, Va.) for 2 h at room temperature. […] PGE2 and TXB2 were measured in conditioned medium by ELISA according to the manufacturer's instructions (ElisaTech, Aurora, Colo.). […]
For other human studies, we quantitated MMP9 by ELISA in conditioned medium (ELISA TECH, Aurora, Colo.). […]

[2] = system: Mmp9; assay: MMP9 activity in BAL of Arhgef1−/− mice after aerosol exposure; type: in vivo, mouse; settings: inhalation of aerosol 20 min (220 μM PTXA2, 190 μM U-46619), BAL 24 hours later
Method: FIG. 4. TP signaling is required for MMP9 production in vitro and in vivo. A) Macrophage Mmp9 expression after culture on fibronectin for 24 hrs in media/vehicle (−), 40 nM S1P, 10 μM LPA, 10 nM U-46619 (TP agonist) or 6 μM PTXA2 (TP antagonist). Data represent normalized mean±SE. B) Arhgef1−/− mice (n=16) were exposed to aerosolized PBS (n=16), 220 μM PTXA2 (n=6) or 190 μM U-46619 (n=10) for 20 minutes and BAL harvested 1 day later and MMP activity measured.

Question: For `CCCCC[C@@H](O)/C=C/[C@H]1C[C@H]2C[C@@H]([C@@H]1C/C=C\CCCC(=O)O)C2(C)C` (relative stereo) [PTXA2, (18-(1alpha,2beta(Z),3alpha(1E,3S*),5alpha))-7-(3-(3-Hydroxy-1-octenyl)-6,6-dimethylbicyclo(3.1.1)hept-2-yl)-5-heptenoic acid], which “inhibition of MMP9 production” value [1] is on record?
Answer: ~90%

Question: What about the “MMP9 activity in BAL” value [2] of the same compound?
Answer: considerably diminished MMP9 activity
